The subject of this assay is clinical isolates of HIV-1. The experiment in a line: HIV-1 replication assay in PBMCs, p24 ELISA. The assay is classed as cell-based. The protocol: HIV-1 replication assay in PBMCs. Virus isolates were obtained from the NIH AIDS Reagent Program. Human PBMCs, seronegative for HIV and hepatitis B virus (Astarte Biologics, LLC) were stimulated in R-3 medium (RPMI 1640 medium with 25 mM HEPES and L-glutamine, 20% heat-inactivated fetal bovine serum, 1% penicillin/streptomycin, 201U/mL IL-2) with 5 µg/mL phytohemagglutinin (PHA-P) for 48 to 72 h. Stimulated PBMCs were resuspended and diluted in fresh R-3 medium and added to 96-well plates at 5×10^4 cells/well. The 50% tissue culture infective dose (TCID50) of each virus stock was measured by end-point dilution assay described by Reed and Muench (Reed, L. J., and Muench, H. (1938) American Journal of Hygiene 27, 493-497). Spinoculation (1,200×g, 2 hrs) was applied to improve the efficiency of infection.
Cells were infected with 40 TCID50s of virus stock under spinoculation in the presence of different concentrations of test compounds (biological quintuplicate wells/concentration) and incubated at 37° C., 5% CO2 for 7 days. On day 4, half of the supernatant was removed and replaced with fresh R-3 medium containing the appropriate concentration of test compounds. On day 7, cell-free supernantant samples were collected for analysis of p24 antigen expression measured by ELISA described above. Antiviral activity was assessed by the inhibition of p24 expression (Reed, L. J., and Muench, H. (1938) American Journal of Hygiene 27, 493-497.

pIC50: −log10 of the molar value.

As a reminder, the pIC50 is the IC50 on a negative log10 scale, so that one unit is a factor of ten. A low value points to a high IC50.

`NC(=O)c1cc2c(-c3ccc4c(c3)CCO4)cncc2s1` [Compound 4e, 4-(2,3-dihydro-1-benzofuran-5-yl)thieno[2,3-c]pyridine-2-carboxamide]: the pIC50 was more than 7.00 (Human immunodeficiency virus 1, BAL, CCR5, PBMC, viral isolate Ba-L, coreceptor CCR5); more than 7.00 (Human immunodeficiency virus 1, CCR5, PBMC, viral isolate 92HT593, coreceptor CXCR4, CCR5); more than 7.00 (Human immunodeficiency virus 1, CCR5, PBMC, viral isolate 92TH014, coreceptor CCR5); more than 7.00 (Human immunodeficiency virus 1, CCR5, PBMC, viral isolate 93BR021, coreceptor CCR5); more than 7.00 (Human immunodeficiency virus 1, CCR5, PBMC, viral isolate 93BR028, coreceptor CCR5); more than 7.00 (Human immunodeficiency virus 1, PBMC, PBMC, viral isolate 92HT599, coreceptor CXCR4). In addition, the pIC50 was more than 7.00 (Human immunodeficiency virus 1, PBMC, PBMC, viral isolate 92UG005, coreceptor CXCR4) and 6.30 to 7.00 (Human immunodeficiency virus 1, PBMC, PBMC, viral isolate LAI, coreceptor CXCR4).

The values are drawn from US10154992B2, “Compounds and methods for treating HIV infection” (THE REGENTS OF THE UNIVERSITY OF CALIFORNIA, priority 2016, dated 2018).
